Measurements: patent publication US6143769A, “Phenylacetic acid benzylamides” (Karl Thomae GmbH, priority 1983, dated 2000)
Like-named read-outs stand apart in the source and are kept apart here.

What was measured:
blood glucose = assay: Test for hypoglycemic activity in fasted female rats (oral); type: in vivo; conditions: for change in vivo at 0.5 mg/kg / change in vivo at 1 mg/kg: Rattus norvegicus, po, read-out: Change in glucose content compared with control
Procedure: Blood samples were taken immediately before the administration of the test compound and 1, 2, 3 and 4 hours afterwards, in each case from the retroorbital Venous plexus. 50 μl of each sample were deproteinated with 0.5 ml of 0.33 N perchloric acid and centrifuged. The glucose in the supernatant fluid was measured using the hexokinase method with the aid of an analytical photometer. The statistical evaluation was made using the t-test according to Student with p=0.05 as the limit of significance.

blood sugar = assay: Blood sugar-lowering effect of the enantiomers in fasted female rats (oral); type: in vivo; conditions: 1.0 mg/kg p.o.
Procedure: The substances to be investigated were suspended in 1.5% methylcellulose immediately before the start of the test and administered into the oesophagus. […] Glucose was measured in the supernatant by the hexokinase method using an analytical photometer. The statistical evaluation was carried out using the Student's t-test with p=0.05 as the limit of significance. Table 1 which follows contains the statistically significant values as percentage deviations from the control: […]

clinical = conditions: human, plasma, 1 mg
Procedure: More specifically, the studies which follow were carried out on healthy male volunteers in whom the levels of glucose and active substance in the course of time were determined:
In the interests of more precise clarification, study 5 was carried out (randomised, open, crossover). […] 2 hours after administration a standard breakfast (B) was eaten, 5 hours after administration a standard lunch (L) was eaten and 10 hours after administration a standard dinner (D) was eaten. Blood samples were taken at different times. The glucose concentrations were measured in the plasma as in study 1. […] The plasma concentrations of AG-EE 624 ZW were calculated as the difference between the two concentrations found:

| SMILES | change in vivo at 0.5 mg/kg (blood glucose; 0.5 mg/kg, 1 h) | change in vivo at 0.5 mg/kg (blood glucose; 0.5 mg/kg, 2 h) | change in vivo at 0.5 mg/kg (blood glucose; 0.5 mg/kg, 3 h) | change in vivo at 0.5 mg/kg (blood glucose; 0.5 mg/kg, 4 h) | change in vivo at 1 mg/kg (blood glucose; 1 mg/kg, 1 h) | change in vivo at 1 mg/kg (blood glucose; 1 mg/kg, 2 h) | change in vivo at 1 mg/kg (blood glucose; 1 mg/kg, 3 h) | change in vivo at 1 mg/kg (blood glucose; 1 mg/kg, 4 h) | further results |
| --- | --- | --- | --- | --- | --- | --- | --- | --- | --- |
| CCCC(NC(=O)Cc1ccc(C(=O)O)c(OCC)c1)c1ccccc1N1CCCCC1 (single isomer, unassigned; (+)) [E, (+)-2-ethoxy-4-[N-{1-(2-piperidino-phenyl)-1-butyl}-aminocarbonylmethyl]-benzoic acid] | -40% | -39% | -36% | -36% |  |  |  |  |  |
| CCOc1cc(CC(=O)N[C@H](CC(C)C)c2ccccc2N2CCCCC2)ccc1C(=O)O [AG-EE 624 ZW, (R)(-)-2-ethoxy-4-[N-[1-(2-piperidino-phenyl)-3-methyl-1-butyl]aminocarbonylmethyl]-benzoic acid] |  |  |  |  |  |  |  |  | Glucose, percentage deviation from control (blood sugar; 1 h): n.s.; Glucose, percentage deviation from control (blood sugar; 2 h): n.s.; Glucose, percentage deviation from control (blood sugar; 3 h): n.s.; Glucose, percentage deviation from control (blood sugar; 4 h): n.s.; MRT (clinical; iv): 3.3 ± 1.7 h; clearance (clinical; iv): 75 ± 34 mL/min; bioavailability (clinical; po): 83 ± 32% |
| CCCC(NC(=O)Cc1ccc(C(=O)O)c(OCC)c1)c1ccccc1N1CCCCC1 (stereo not drawn) [B, 2-ethoxy-4-[N-{1-(2-piperidino-phenyl)-1-butyl}-aminocarbonylmethyl]-benzoic acid] | -43% | -36% | -34% | -35% | -38% | -49% | -38% | -33% |  |
| COc1cc(CC(=O)NC(c2ccccc2)c2ccccc2N2CCCCC2)ccc1C(=O)O (stereo not drawn) [C, 2-methoxy-4-[N-(α-phenyl-2-piperidino-benzyl)-aminocarbonymethyl]-benzoic acid] |  |  |  |  | -38% | -41% | -38% | -34% |  |
| COc1cc(CC(=O)NC(C)c2ccccc2N2CCCCC2)ccc1C(=O)O (stereo not drawn) [Compound A, 2-methoxy-4-[N-{1-(2-piperidino-phenyl)-1-ethyl}-aminocarbonylmethyl]-benzoic acid] |  |  |  |  | -37% | -46% | -23% | -14% |  |
| CCOc1cc(CC(=O)NC(C)c2ccccc2N2CCCCC2)ccc1C(=O)O (stereo not drawn) [F, 2-ethoxy-4-[N-{1-(2-piperidino-phenyl)-1-ethyl}-aminocarbonylmethyl]-benzoic acid] |  |  |  |  | -44% | -44% | -40% | -30% |  |
| CCCC(NC(=O)Cc1ccc(C(=O)O)c(OCC)c1)c1ccccc1N1CCCC1 (stereo not drawn) [G, sodium 2-ethoxy-4-[N-{1-(2-pyrrolidino-phenyl)-1-butyl}-aminocarbonylmethyl]-benzoate] | -40% | -33% | -30% | -17% |  |  |  |  |  |
| CCCC(NC(=O)Cc1ccc(C(=O)O)c(OCC)c1)c1ccccc1N1CCCCCC1 (stereo not drawn) [H, 2-ethoxy-4-[N-{1-(2-hexamethyleneimino-phenyl)-1-butyl}-aminocarbonylmethyl]-benzoic acid] | -42% | -34% | -18% |  |  |  |  |  | Change in glucose content compared with control (blood glucose; 0.5 mg/kg, 4 h): n.s. |
| CCCC(NC(=O)Cc1ccc(C(=O)O)c(OC)c1)c1ccccc1N1CCCCC1 (stereo not drawn) [I, 2-methoxy-4-[N-{1-(2-piperidino-phenyl)-1-butyl}-aminocarbonylmethyl]-benzoic acid] | -42% | -39% | -37% | -30% |  |  |  |  |  |
| CCCOc1cc(CC(=O)NC(CCC)c2ccccc2N2CCCCC2)ccc1C(=O)O (stereo not drawn) [K, 2-n-propoxy-4-[N-{1-(2-piperidino-phenyl)-1-butyl}-aminocarbonylmethyl]-benzoic acid] | -34% | -36% | -24% |  |  |  |  |  | Change in glucose content compared with control (blood glucose; 0.5 mg/kg, 4 h): n.s. |
| CCCCC(NC(=O)Cc1ccc(C(=O)O)c(OCC)c1)c1ccccc1N1CCCCC1 (stereo not drawn) [L, 2-ethoxy-4-[N-{1-(2-piperidino-phenyl)-1-pentyl}-aminocarbonylmethyl]-benzoic acid] | -42% | -45% | -38% | -39% |  |  |  |  |  |
| CCOc1cc(CC(=O)NC(c2ccccc2)c2ccc(C)cc2N2CCCCC2)ccc1C(=O)O (stereo not drawn) [M, 2-ethoxy-4-[N-(4-methyl-α-phenyl1-2-piperidino-benzyl)-aminocarbonylmethyl]-benzoic acid] |  |  |  |  | -44% | -41% | -35% | -27% |  |
| CCCC(NC(=O)Cc1ccc(CC#N)c(OCC)c1)c1ccccc1N1CCCCC1 (stereo not drawn) [O, [2-ethoxy-4-[N-(1-(2-piperidino-phenyl)-1-butyl)-aminocarbonylmethyl]-phenyl]-acetonitrile] |  |  |  |  | -29% | -37% | -35% | -34% |  |
| CCOc1cc(CC(=O)NC(c2ccccc2)c2ccccc2N2CCCCC2)ccc1CC#N (stereo not drawn) [P, [2-ethoxy-4-[N-(α-phenyl-2-piperidino-benzyl)-aminocarbonylmethyl]-phenyl]acetonitrile] |  |  |  |  | -12% | -10% | -14% | -14% |  |
| CCOc1cc(CC(=O)NC(CC2CCCCC2)c2ccccc2N2CCCCC2)ccc1C(=O)O (stereo not drawn) [Q, 2-ethoxy-4-[N-(α-cyclohexylmethyl-2-piperidino-benzyl)-aminocarbonyl-methyl]-benzoic acid] | -22% | -47% | -45% | -45% |  |  |  |  |  |
| CCOC(=O)C(NC(=O)Cc1ccc(C(=O)O)c(OCC)c1)c1ccccc1N1CCCCC1 (stereo not drawn) [R, 2-ethoxy-4-[N-(α-ethoxycarbonyl-2-piperidino-benzyl)-aminocarbonylmethyl]-benzoic acid] |  |  |  |  | -33% | -17% |  |  | Change in glucose content compared with control (blood glucose; 1 mg/kg, 3 h): n.s.; Change in glucose content compared with control (blood glucose; 1 mg/kg, 4 h): n.s. |
| CCOc1cc(CC(=O)NC(C(=O)OC)c2ccccc2N2CCCCC2)ccc1C(=O)O (stereo not drawn) [S, 2-ethoxy-4-[N-(α-methoxycarbonyl-2-piperidino-benzyl)-aminocarbonylmethyl]-benzoic acid] |  |  |  |  | -42% | -35% | -28% | -18% |  |
| CCOc1cc(CC(=O)NC(C(=O)OC(C)C)c2ccccc2N2CCCCC2)ccc1C(=O)O (stereo not drawn) [T, 2-ethoxy-4-[N-(α-isopropoxycarbonyl-2-piperidino-benzyl)-aminocarbonylmethyl]benzoic acid] |  |  |  |  | -36% | -21% | -18% |  | Change in glucose content compared with control (blood glucose; 1 mg/kg, 4 h): n.s. |
| CCOc1cc(CC(=O)NC(CC2CC2)c2ccccc2N2CCCCC2)ccc1C(=O)O (stereo not drawn) [U, 2-ethoxy-4-[N-(α-cyclopropylmethyl-2-piperidino-benzyl)-aminocarbonylmethyl]benzoic acid] | -45% | -45% | -36% | -36% |  |  |  |  |  |
| CCOc1cc(CC(=O)NC(CC2CCCO2)c2ccccc2N2CCCCC2)ccc1C(=O)O (stereo not drawn) [V, 2-ethoxy-4-[N-(α-(tetrahydrofuran-2-yl-methyl)-2-piperidino-benzyl)-aminocarbonylmethyl]benzoic acid] | -46% | -25% | -13% | -10% |  |  |  |  |  |
| C=CCC(NC(=O)Cc1ccc(C(=O)O)c(OCC)c1)c1ccccc1N1CCCCC1 (stereo not drawn) [W, 2-ethoxy-4-[N-(1-(2-piperidino-phenyl)-3-buten-1-yl)-aminocarbonylmethyl]benzoic acid] | -42% | -39% | -28% | -35% |  |  |  |  |  |
| C=C(C)CC(NC(=O)Cc1ccc(C(=O)O)c(OCC)c1)c1ccccc1N1CCCCC1 (stereo not drawn) [X, 2-ethoxy-4-[N-(1-(2-piperidino-phenyl)-3-methyl-3-buten-1-yl)-aminocarbonylmethyl]benzoic acid] | -44% | -41% | -31% | -28% |  |  |  |  |  |
| C#CCC(NC(=O)Cc1ccc(C(=O)O)c(OCC)c1)c1ccccc1N1CCCCC1 (stereo not drawn) [Y, 2-ethoxy-4-[N-(1-(2-piperidino-phenyl)-3-butyn-1-yl)-aminocarbonylmethyl]benzoic acid] | -33% | -18% | -11% |  |  |  |  |  | Change in glucose content compared with control (blood glucose; 0.5 mg/kg, 4 h): n.s. |
